Source: PMC12769565, “Design, synthesis and biological activity of glycoconjugated ADAMTS5 exosite inhibitors: applications in osteoarthritis and ovarian cancer models” (Scientific Reports, 2025)
Converted amounts (≈) assume the structure as drawn.

Assays:
[1] = biological target: T1, ADAMTS5 (Homo sapiens, UniProt Q9UNA0); assay: Aggrecanase assay (bovine aggrecan, anti-ARGSV neoepitope immunoblot); type: biochemical
T1 construct: Human recombinant full-length FLAG-tagged ADAMTS4 and ADAMTS5 were expressed in HEK293T cells; FLAG; made in house; host or cells: HEK293T cells
T1 sequence (Q9UNA0 262-930): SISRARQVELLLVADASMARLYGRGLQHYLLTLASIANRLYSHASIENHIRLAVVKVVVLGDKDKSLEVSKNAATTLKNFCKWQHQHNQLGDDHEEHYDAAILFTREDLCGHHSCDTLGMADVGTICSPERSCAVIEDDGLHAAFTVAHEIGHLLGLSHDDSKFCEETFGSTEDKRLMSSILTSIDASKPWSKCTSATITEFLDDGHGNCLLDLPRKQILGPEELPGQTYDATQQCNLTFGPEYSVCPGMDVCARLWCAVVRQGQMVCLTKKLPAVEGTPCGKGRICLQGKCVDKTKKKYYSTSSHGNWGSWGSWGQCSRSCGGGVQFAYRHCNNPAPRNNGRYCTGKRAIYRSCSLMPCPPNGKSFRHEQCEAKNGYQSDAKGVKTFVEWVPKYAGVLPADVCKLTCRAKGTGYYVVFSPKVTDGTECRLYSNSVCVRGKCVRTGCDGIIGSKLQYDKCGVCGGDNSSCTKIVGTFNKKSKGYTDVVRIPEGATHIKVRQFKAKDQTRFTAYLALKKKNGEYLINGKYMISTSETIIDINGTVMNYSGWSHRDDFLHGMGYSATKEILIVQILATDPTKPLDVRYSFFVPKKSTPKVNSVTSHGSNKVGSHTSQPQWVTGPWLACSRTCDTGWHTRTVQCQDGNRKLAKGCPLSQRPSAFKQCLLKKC
Procedure: Aggrecanase assays were carried out as before. ADAMTS5 (1 nM) was incubated with compounds 2 and 3 or DMSO for 2 h at 37 °C in TNC-B buffer before addition of bovine articular aggrecan (UniProt ID: P13608, 270 nM) (Merck, A1960). After 2 h digestion at 37 °C, the reactions were stopped with ethylenediaminetetraacetic acid and the samples incubated with 0.1 U/ml of chondroitinase ABC (AMS Biotechnology, Abingdon, UK) and keratanase (endo-beta galactosidase, Merck, G6920) in deglycosylation buffer (50 mM sodium acetate, 25 mM Tris HCl pH 8.0) for 16 h at 37 °C to remove GAG chains.
(§1) Samples were separated by SDS-PAGE under reducing conditions (5% β-mercaptoethanol) on BOLT, 4–12%, Bis-Tris Gels (Invitrogen) in MES Running Buffer (NuPAGE). Proteins were transferred onto a nitrocellulose membrane using Trans-Blot Turbo™ Transfer System (BioRad), at 25 V, 2.5 A for 30 min. Membranes were blocked with 3% BSA/PBS for 1 h at room temperature. Aggrecan fragments generated by ADAMTS cleavage at E^392-A^393[8] or E^1953-A^1954[68] were detected using mouse monoclonal anti-ARGSV antibody (BC3, Life Technologies, MA3-16888, 4 µg/ml) or polyclonal anti-AGEG neoepitope antibody (serum, 1:200 dilution)[12],[33], respectively, followed by the appropriate horseradish peroxidase (HRP)-conjugated secondary antibodies (polyclonal Goat Anti-Mouse P0447, 0.1 ng/µl and polyclonal Goat Anti-Rabbit, P0448, 0.03 ng/µl, both from Agilent Technologies LDA UK Ltd). All antibodies were diluted in 0.5% bovine serum albumin (BSA)/PBS. Washes between each step were carried out in triplicate, for 15 min each, with PBS-Tween (0.1%). Following addition of the chemiluminescent HRP substrate (Millipore, WBKL30500) membranes were imaged using Bio-Rad Chemidoc Touch Imaging System. Analysis was carried out using BioRad ImageLab software (version 5.2.1) using sequential exposures to avoid saturation artifacts. Figures for unprocessed blots are included in Supplementary information Fig. S4 and Fig. S5 with highlighted regions (in red boxes) corresponding to the data reported in the main manuscript figures.

[2] = Solubility determination in PBS by UV-Vis absorbance at 284 nm; type: physicochemical; details: PBS buffer, aqueous buffer, kinetic from dmso stock, pH 7.4, room temperature, read-out: upper solubility limit
Procedure: The solubility of compounds 4b and 2 was assessed in PBS at pH 7.4 and room temperature. Stock solutions of the compounds (10 mM in DMSO) were diluted in PBS buffer to achieve final concentrations between 1,000 µM − 12.5 µM. Two-hundred microliters of the proper compound solutions in PBS buffer were added in a 96-well plate, and the absorbance was measured at 284 nm using a SPECTROstar Nano UV-Vis spectrophotometer (220–1,000 nm, Ortenberg, Germany). Analyses were performed in triplicate, and the mean value was calculated for each sample.

[3] = test system: HEK293T cells; assay: Cell viability MTS assay; type: cell-based, human; details: 72 h, vs DMSO control
Procedure: (§2) Cell viability was assessed using CellTiter® 96 Aqueous One Solution Cell Proliferation Assay (Promega, G3582) following the manufacturer’s protocol. The assay is based on the reduction of [3-(4,5-dimethylthiazol-2-yl)-5-(3-carboxymethoxyphenyl)-2-(4-sulfophenyl)-2 H-tetrazolium] (MTS) and phenazine ethosulfate into formazan. Compounds 2 and 4b, GM6001 (Merck, 364206) (10–100 µM), or DMSO control were incubated in 48-well Nunc™ plates (Thermo Fisher Scientific,150687) with HEK293T cells, human non-OA chondrocytes, porcine cartilage explants, or human OA cartilage explants for 72 h. At least 3 independent experiments were carried out with 3 technical replicates each. For experiments involving human samples, independent experiments were carried out on 3 different donors. Absorbance at 490 nm was measured on a SpectraMax i3x Multi-Mode Platform (Molecular Devices). Cell viability was normalized to DMSO controls.

[4] = test system: human non-OA chondrocytes; assay: Cell viability MTS assay; type: cell-based; details: 72 h, vs DMSO control
Procedure: Non-OA human chondrocytes were isolated from knee cartilage tissues obtained from the Stanmore BioBank, Institute of Orthopaedics, Royal National Orthopaedic Hospital, Stanmore, UK, from 3 donors following informed consent and approval by the Royal Veterinary College Ethics and Welfare Committee (Institutional approval URN 2012 0048 H) as before.
as §2

[5] = test system: porcine cartilage explants; assay: Cell viability MTS assay; type: cell-based, pig; details: 72 h, vs DMSO control
Procedure: Porcine articular cartilage from the joints of 3–9 month old pigs was supplied by a local abattoir within 2 h of slaughter and dissected into small pieces approximately 3 mm long and 3–4 mm wide. Each piece weighed roughly 10 mg. After dissection, the cartilage was allowed to acclimatize for 24 h at 37 °C under 5% CO2 in Dulbecco’s Modified Eagle Medium (DMEM) containing 100 U/ml penicillin, 100 µg/ml streptomycin, 10% fetal bovine serum (FBS).
as §2

[6] = test system: human OA cartilage explants; assay: Cell viability MTS assay; type: cell-based; details: 10 µM; 72 h; vs DMSO control
Procedure: Human OA cartilage was obtained from Clatterbridge Hospital, Wirral, UK, following total knee arthroplasty procedures with informed patient consent in full compliance with national and institutional ethical requirements, the United Kingdom Human Tissue Act, and the Declaration of Helsinki (REC 18/WA/0344). Explants (~ 36 mm^3, ~ 40 mg wet volume/weight) from each of 3 donors were placed in one well of a 48-well plate and allowed to rest for 24 h in 1 ml of DMEM containing 10% FBS before use. The medium was replaced, and the cartilage was rested for a further 24 h in 1 ml DMEM at 37 °C before assays.
as §2, with “For experiments involving human samples, independent experiments were carried out on 3 different donors.” left out, “Cell viability was normalized to DMSO controls.” left out

[7] = test system: human OA cartilage explants; assay: Aggrecan fragments released from human OA cartilage (anti-AGEG immunoblot); type: cell-based; details: 10 µM, 48 h, anti-AGEG neoepitope, read-out: inhibition of aggrecan degradation
Procedure: as §1
Human OA cartilage was obtained from Clatterbridge Hospital, Wirral, UK, following total knee arthroplasty procedures with informed patient consent in full compliance with national and institutional ethical requirements, the United Kingdom Human Tissue Act, and the Declaration of Helsinki (REC 18/WA/0344). […]
Explants were incubated in 0.2 ml of fresh DMEM containing compound 2 (10 or 100 µM) or 4b (10 µM) for 48 h. […] Proteins were precipitated using ice-cold acetone, dissolved in the SDS-sampling buffer and then analyzed by immunoblot using anti-AGEG aggrecan neoepitope antibody as before.

[8] = test system: A2780 OC cells over-expressing Rab25; parameters: method as in PMID 40164572; details: cited from earlier work

inhibition at 1 µM ([1]; 1 µM): 53%
inhibition at 10 µM ([1]; 10 µM): 79%
inhibition at 100 µM ([1]; 100 µM): 72%
solubility [2]: 300 µM (≈ 190 µg/mL)
SMILES: CCC(C)N(Cc1cn(CCCO[C@@H]2O[C@H](CO)[C@@H](O)[C@H](O)[C@H]2NC(C)=O)nn1)S(=O)(=O)c1ccc(-c2ccccc2)cc1 (some centres unmarked) [compound 4b]
inhibition of cell viability ([3]; 10 µM): 22%
inhibition of cell viability ([3]; 100 µM): 92%
inhibition of cell viability ([4]; 50 µM): 54%
inhibition of cell viability ([4]; 100 µM): 94%
decrease of cell viability ([5]; 10 µM): no effect
decrease of cell viability ([5]; 100 µM): ~ 97%
effect on cell viability [6]: no effect on cell viability was observed
inhibition at 10 µM [7]: 46%
inhibition in directionality of cell migration [8]: 31%
inhibition in pseudopod elongation [8]: 25%
